Source: PubChem BioAssay AID2060621 (Molecular Pharmacology Branch, DTP, NCI, 2025)

Tested on: 324938-238-R-J1-PDC complex spheroids viability
Test: Anticancer human tumor 324938-238-R-J1-PDC patient-derived bladder carcinoma cell line growth inhibition [CLK]
Details: for IC50: curve of first compound; for viability, T/C: stronger effect = lower value
In short: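 Patient-derived tumor cells grown as complex spheroids with HUVEC endothelial cells and mesenchymal stem cells, treated with drug combinations. Concentrations descend in half-log steps from near clinical Cmax, or from 10 microM if Cmax unknown.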
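Also: viability read after seven days of drug exposure.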
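For viability, T/C in this document: 100% = DMSO vehicle control wells.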

Cn1ncnc1[C@H]1c2n[nH]c(=O)c3cc(F)cc(c23)N[C@@H]1c1ccc(F)cc1 + CNC(=O)c1ccc(Nc2nc(OC3CCCC3)c3c(-c4ccc5nc(C)oc5c4)c[nH]c3n2)c(OC)c1
IC50 (second compound 0.0316 µM): 11900 pM | IC50 (second compound 0.1 µM): < 316 pM | IC50 (second compound 0.316 µM): < 316 pM | IC50 (second compound 1 µM): < 316 pM | IC50 (second compound 3.16 µM): < 316 pM | IC50 (second compound 10 µM): < 316 pM | viability, T/C (second compound 0.0316 µM, first compound 0.000316 µM): 83% | viability, T/C (second compound 0.0316 µM, first compound 0.001 µM): 89.5% | viability, T/C (second compound 0.0316 µM, first compound 0.00316 µM): 66.3% | viability, T/C (second compound 0.0316 µM, first compound 0.01 µM): 54.8% | viability, T/C (second compound 0.0316 µM, first compound 0.0316 µM): 35.1% | viability, T/C (second compound 0.0316 µM, first compound 0.1 µM): 26.6% | viability, T/C (second compound 0.1 µM, first compound 0.000316 µM): 26.2% | viability, T/C (second compound 0.1 µM, first compound 0.001 µM): 26.5% | viability, T/C (second compound 0.1 µM, first compound 0.00316 µM): 21.8% | viability, T/C (second compound 0.1 µM, first compound 0.01 µM): 21% | viability, T/C (second compound 0.1 µM, first compound 0.0316 µM): 20.4% | viability, T/C (second compound 0.1 µM, first compound 0.1 µM): 20.7% | viability, T/C (second compound 0.316 µM, first compound 0.000316 µM): 17.8% | viability, T/C (second compound 0.316 µM, first compound 0.001 µM): 20.8% | viability, T/C (second compound 0.316 µM, first compound 0.00316 µM): 16.7% | viability, T/C (second compound 0.316 µM, first compound 0.01 µM): 18.7% | viability, T/C (second compound 0.316 µM, first compound 0.0316 µM): 19.8% | viability, T/C (second compound 0.316 µM, first compound 0.1 µM): 17.4% | viability, T/C (second compound 1 µM, first compound 0.000316 µM): 16.5% | viability, T/C (second compound 1 µM, first compound 0.001 µM): 15.4% | viability, T/C (second compound 1 µM, first compound 0.00316 µM): 14.7% | viability, T/C (second compound 1 µM, first compound 0.01 µM): 13.9% | viability, T/C (second compound 1 µM, first compound 0.0316 µM): 14.8% | viability, T/C (second compound 1 µM, first compound 0.1 µM): 15.9% | viability, T/C (second compound 3.16 µM, first compound 0.000316 µM): 17.5% | viability, T/C (second compound 3.16 µM, first compound 0.001 µM): 19.6% | viability, T/C (second compound 3.16 µM, first compound 0.00316 µM): 15.4% | viability, T/C (second compound 3.16 µM, first compound 0.01 µM): 17% | viability, T/C (second compound 3.16 µM, first compound 0.0316 µM): 18% | viability, T/C (second compound 3.16 µM, first compound 0.1 µM): 15.4% | viability, T/C (second compound 10 µM, first compound 0.000316 µM): 18.2% | viability, T/C (second compound 10 µM, first compound 0.001 µM): 18.8% | viability, T/C (second compound 10 µM, first compound 0.00316 µM): 18.9% | viability, T/C (second compound 10 µM, first compound 0.01 µM): 17.8% | viability, T/C (second compound 10 µM, first compound 0.0316 µM): 18.7% | viability, T/C (second compound 10 µM, first compound 0.1 µM): 17.3%
